Target: T1, SHP2 protein (Homo sapiens, UniProt Q06124)
T1 sequence (Q06124 1-593): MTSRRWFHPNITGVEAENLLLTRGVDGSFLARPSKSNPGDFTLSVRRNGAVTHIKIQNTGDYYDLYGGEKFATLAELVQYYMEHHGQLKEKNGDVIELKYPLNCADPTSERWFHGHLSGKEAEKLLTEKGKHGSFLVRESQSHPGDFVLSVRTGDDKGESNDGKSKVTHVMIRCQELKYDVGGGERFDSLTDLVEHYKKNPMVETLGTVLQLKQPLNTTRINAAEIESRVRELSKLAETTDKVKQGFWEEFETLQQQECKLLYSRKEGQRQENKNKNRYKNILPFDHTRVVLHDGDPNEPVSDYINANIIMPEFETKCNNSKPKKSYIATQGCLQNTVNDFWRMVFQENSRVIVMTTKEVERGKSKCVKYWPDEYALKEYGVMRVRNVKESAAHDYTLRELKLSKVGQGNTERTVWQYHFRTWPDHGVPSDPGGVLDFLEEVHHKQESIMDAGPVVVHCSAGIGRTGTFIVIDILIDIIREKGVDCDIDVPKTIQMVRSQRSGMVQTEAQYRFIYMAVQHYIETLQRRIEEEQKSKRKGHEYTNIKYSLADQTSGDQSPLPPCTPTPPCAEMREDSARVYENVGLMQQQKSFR
Assay: Measurement of SHP2 protein degradation in MV-4-11 cells (western blotting)
Assay type: cell-based
Parameters: endogenous in cells; host or cells: MV-4-11
Conditions: for SHP2 degradation (%) 10 nM / SHP2 degradation (%) 100 nM / SHP2 degradation (%) 1000 nM: MV-4-11 cells, 24 hours
Procedure, shortened: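 SHP2 protein levels were assessed by western blotting in MV-4-11 cells after a 24 hour compound treatment. Lysates were sonicated, centrifuged, normalized by BCA assay at 562 nm, run on Bis-tris 4-12% gels, transferred to NC membrane, probed with anti-SHPTP2 (70 kDa) and anti-GAPDH (37 kDa) antibodies, and detected on LI-COR Odyssey.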

| SMILES | SHP2 degradation (%) 10 nM [%] | SHP2 degradation (%) 100 nM [%] | SHP2 degradation (%) 1000 nM [%] | SHP2 protein degradation activity (in words) (comment on Table 4) |
| --- | --- | --- | --- | --- |
| Cc1ncsc1-c1ccc(CNC(=O)[C@@H]2C[C@@H](O)CN2C(=O)[C@@H](NC(=O)C2(F)CC2)C(C)(C)C)c(OCCN2CCN(C(=O)CC(=O)Nc3cccc(Sc4cnc(N5CCC(C)(CN)CC5)cn4)c3Cl)C[C@@H]2C(=O)O)c1 [Example 70, (R)-4-(3-((3-((5-(4-(aminomethyl)-4-methylpiperidin-1-yl)pyrazin-2-yl)thio)-2-chlorophenyl)amino)-3-oxopropanoyl)-1-(2-(2-(((2S,4R)-1-((S)-2-(1-fluorocyclopropane-1-carboxamido)-3,3-dimethylbutanoyl)-4-hydroxypyrrolidine-2-carboxamido)methyl)-5-(4-methylthiazol-5-yl)phenoxy)ethyl)piperazine-2-carboxylic Acid] | 14.4 | 59.2 |  |  |
| Cc1ncsc1-c1ccc(CNC(=O)[C@@H]2C[C@@H](O)CN2C(=O)[C@@H](NC(=O)C2(F)CC2)C(C)(C)C)c(OCCC2CCN(C(=O)CC(=O)Nc3cccc(Sc4ncc(N5CCC(C)(N)CC5)nc4N)c3Cl)CC2)c1 [Example 35, (2S,4R)—N-(2-(2-(1-(3-((3-((3-amino-5-(4-amino-4-methylpiperidin-1-yl)pyrazin-2-yl)thio)-2-chlorophenyl)amino)-3-oxopropanoyl)piperidin-4-yl)ethoxy)-4-(4-methylthiazol-5-yl)benzyl)-1-((S)-2-(1-fluorocyclopropane-1-carboxamido)-3,3-dimethylbutanoyl)-4-hydroxypyrrolidine-2-carboxamide] | 74 | 93 | 93 |  |
| Cc1ncsc1-c1ccc(CNC(=O)[C@@H]2C[C@@H](O)CN2C(=O)[C@@H](NC(=O)C2(F)CC2)C(C)(C)C)c(OCC2CCN(C(=O)CC(=O)Nc3cccc(Sc4cnc(N5CCC(C)(N)CC5)cn4)c3Cl)CC2)c1 [Example 29, (2S,4R)—N-(2-((1-(3-((3-((5-(4-amino-4-methylpiperidin-1-yl)pyrazin-2-yl)thio)-2-chlorophenyl)amino)-3-oxopropanoyl)piperidin-4-yl)methoxy)-4-(4-methylthiazol-5-yl)benzyl)-1-((S)-2-(1-fluorocyclopropane-1-carboxamido)-3,3-dimethylbutanoyl)-4-hydroxypyrrolidine-2-carboxamide] | 84 | 95.5 |  |  |
| Cc1ncsc1-c1ccc(CNC(=O)[C@@H]2C[C@@H](O)CN2C(=O)[C@@H](NC(=O)C2(F)CC2)C(C)(C)C)c(OCCN2CCN(CC(=O)Nc3cccc(Sc4cnc(N5CCC(C)(CN)CC5)cn4)c3Cl)CC2)c1 [Example 72, (2S,4R)—N-(2-(2-(4-(2-((3-((5-(4-(aminomethyl)-4-methylpiperidin-1-yl)pyrazin-2-yl)thio)-2-chlorophenyl)amino)-2-oxoethyl)piperazin-1-yl)ethoxy)-4-(4-methylthiazol-5-yl)benzyl)-1-((S)-2-(1-fluorocyclopropane-1-carboxamido)-3,3-dimethylbutanoyl)-4-hydroxypyrrolidine-2-carboxamide] | 5.1 | 85.6 |  |  |
| Cc1ncsc1-c1ccc(CNC(=O)[C@@H]2C[C@@H](O)CN2C(=O)[C@@H](NC(=O)C2CC2)C(C)(C)C)c(OCCN2CCN(C(=O)CC(=O)Nc3cccc(Sc4cnc(N5CCC(C)(CN)CC5)cn4)c3Cl)CC2)c1 [Example 56, (2S,4R)—N-(2-(2-(4-(3-((3-((5-(4-(aminomethyl)-4-methylpiperidin-1-yl)pyrazin-2-yl)thio)-2-chlorophenyl)amino)-3-oxopropanoyl)piperazin-1-yl)ethoxy)-4-(4-methylthiazol-5-yl)benzyl)-1-((S)-2-(cyclopropanecarboxamido)-3,3-dimethylbutanoyl)-4-hydroxypyrrolidine-2-carboxamide] | 91.4 | 98.9 |  |  |
| Cc1ncsc1-c1ccc(CNC(=O)[C@@H]2C[C@@H](O)CN2C(=O)[C@@H](NC(=O)C2(F)CC2)C(C)(C)C)c(OCCCN2CCC(CC(=O)Nc3cccc(Sc4cnc(N5CCC(C)(N)CC5)cn4)c3Cl)CC2)c1 [Example 8, (2S,4R)—N-(2-(3-(4-(2-((3-((5-(4-amino-4-methylpiperidin-1-yl)pyrazin-2-yl)thio)-2-chlorophenyl)amino)-2-oxoethyl)piperidin-1-yl)propoxy)-4-(4-methylthiazol-5-yl)benzyl)-1-((S)-2-(1-fluorocyclopropane-1-carboxamido)-3,3-dimethylbutanoyl)-4-hydroxypyrrolidine-2-carboxamide] | 39.5 | 92.6 | 96.5 |  |
| Cc1ncsc1-c1ccc(CNC(=O)[C@@H]2C[C@@H](O)CN2C(=O)[C@@H](NC(=O)C2(F)CC2)C(C)(C)C)c(OCCCC2CCN(C(=O)CC(=O)Nc3cccc(Sc4ncc(N5CCC(C)(CN)CC5)nc4N)c3Cl)CC2)c1 [Example 42, (2S,4R)—N-(2-(3-(1-(3-((3-((3-amino-5-(4-(aminomethyl)-4-methylpiperidin-1-yl)pyrazin-2-yl)thio)-2-chlorophenyl)amino)-3-oxopropanoyl)piperidin-4-yl)propoxy)-4-(4-methylthiazol-5-yl)benzyl)-1-((S)-2-(1-fluorocyclopropane-1-carboxamido)-3,3-dimethylbutanoyl)-4-hydroxypyrrolidine-2-carboxamide] | 73.5 | 95.0 |  |  |
| Cc1ncsc1-c1ccc(CNC(=O)[C@@H]2C[C@@H](O)CN2C(=O)[C@@H](NC(=O)C2(F)CC2)C(C)(C)C)c(OCCCC2CCN(C(=O)CC(=O)Nc3cccc(Sc4cnc(N5CCC(C)(CN)CC5)cn4)c3Cl)CC2)c1 [Example 41, (2S,4R)—N-(2-(3-(1-(3-((3-((5-(4-(aminomethyl)-4-methylpiperidin-1-yl)pyrazin-2-yl)thio)-2-chlorophenyl)amino)-3-oxopropanoyl)piperidin-4-yl)propoxy)-4-(4-methylthiazol-5-yl)benzyl)-1-((S)-2-(1-fluorocyclopropane-1-carboxamido)-3,3-dimethylbutanoyl)-4-hydroxypyrrolidine-2-carboxamide] | 77.0 | 92.5 | 91.5 |  |
| Cc1ncsc1-c1ccc(CNC(=O)[C@@H]2C[C@@H](O)CN2C(=O)[C@@H](NC(=O)C2(F)CC2)C(C)(C)C)c(OCCC2CCN(C(=O)C3(C(=O)Nc4cccc(Sc5cnc(N6CCC(C)(CN)CC6)cn5)c4Cl)CC3)CC2)c1 [Example 47, (2S,4R)—N-(2-(2-(1-(1-((3-((5-(4-(aminomethyl)-4-methylpiperidin-1-yl)pyrazin-2-yl)thio)-2-chlorophenyl)carbamoyl)cyclopropane-1-carbonyl)piperidin-4-yl)ethoxy)-4-(4-methylthiazol-5-yl)benzyl)-1-((S)-2-(1-fluorocyclopropane-1-carboxamido)-3,3-dimethylbutanoyl)-4-hydroxypyrrolidine-2-carboxamide] | −2.5 | 21.1 |  | somewhat decreased |
| CC(=O)N[C@H](C(=O)N1C[C@H](O)C[C@H]1C(=O)NCc1ccc(-c2scnc2C)cc1OCCCN1CCN(C(=O)CC(=O)Nc2cccc(Sc3cnc(N4CCC(C)(CN)CC4)cn3)c2Cl)CC1)C(C)(C)C [Example 61, (2S,4R)-1-((S)-2-acetamido-3,3-dimethylbutanoyl)-N-(2-(3-(4-(3-((3-((5-(4-(aminomethyl)-4-methylpiperidin-1-yl)pyrazin-2-yl)thio)-2-chlorophenyl)amino)-3-oxopropanoyl)piperazin-1-yl)propoxy)-4-(4-methylthiazol-5-yl)benzyl)-4-hydroxypyrrolidine-2-carboxamide] | 87.3 | 99.4 |  |  |
| Cc1ncsc1-c1ccc(CNC(=O)[C@@H]2C[C@@H](O)CN2C(=O)[C@@H](NC(=O)C2(F)CC2)C(C)(C)C)c(OCCN2CCN(c3ccc(C(=O)Nc4cccc(Sc5cnc(N6CCC(C)(CN)CC6)cn5)c4Cl)nc3)CC2)c1 [Example 81, N-(3-((5-(4-(aminomethyl)-4-methylpiperidin-1-yl)pyrazin-2-yl)thio)-2-chlorophenyl)-5-(4-(2-(2-(((2S,4R)-1-((S)-2-(1-fluorocyclopropane-1-carboxamido)-3,3-dimethylbutanoyl)-4-hydroxypyrrolidine-2-carboxamido)methyl)-5-(4-methylthiazol-5-yl)phenoxy)ethyl)piperazin-1-yl)picolinamide] | 22.7 | 93.2 |  |  |

— patent US20250230154A1, “COMPOUND HAVING SHP2 PROTEIN DEGRADING ACTIVITY, AND MEDICAL USES THEREOF” (UBIX THERAPEUTICS, INC., priority 2021, published 2025)
